From US10793544B2, “Disubstituted and trisubstituted 1,2,3-triazoles as Wnt inhibitors” (The Board of Regents of the University of Texas System, priority 2016, dated 2020)

Assays:
[1] = system: LRP6 phosphorylation; assay: Western blot for biochemical markers of Wnt signaling in Hela cells: LRP6 phosphorylation; type: cell-based; conditions: incubated 24 h, Western blot (FIG. 2)
Excerpt: (§1) Cell lysates were then subjected to Western blot analysis for biochemical markers of Wnt signaling (LRP6 and Dvl2/3 phosphorylation).
(§2) Dishevelled (Dvl) phosphorylation is associated with both canonical and non-canonical Wnt signaling pathways.

[2] = system: Dvl2/3 phosphorylation; assay: Western blot for biochemical markers of Wnt signaling in Hela cells: Dvl2/3 phosphorylation; type: cell-based; conditions: incubated 24 h, Western blot (FIG. 2)
Excerpt: as §1, §2

[3] = system: Axin2 expression; conditions: DLD-1 cells, exposure for 2 h; cited from earlier work
[4] = system: Wnt/b-catenin pathway activity in L-Wnt-STF cells; assay: Suppression of Wnt signaling in L-Wnt-STF cells (Firefly luciferase reporter); type: cell-based
Procedure: Chemical synthesis is described below in Example 3. L-Wnt-STF cells (Chen, et al., 2009) were seeded into each well of a white opaque 96-well plate and compounds added immediately thereafter. Luciferase activities (Firefly luciferase for Wnt/b-catenin pathway activity and Renilla luciferase activity as an irrelevant cell signal) were measured using a previously reported protocol (Wang, et al., 2013).
Additional IWPs to suppress Wnt signaling in L-Wnt-STF cells were synthesized and tested for their ability to suppress Wnt signaling as described above. The relevant data for some of the compounds are shown below in Table 1.

With O=C(Cn1nnc(-c2ccncc2)c1-c1ccccc1)Nc1ccc(-c2ccccc2)cn1 [IWP-O1, 2-(5-Phenyl-4-(pyridin-4-yl)-1H-1,2,3-triazol-1-yl)-N-(5-phenylpyridin-2-yl)acetamide] the “phosphorylation of LRP6” value [1] was “suppressed” and the “phosphorylation of Dvl2/3” value [2] was “effectively suppressed”.

For O=C(Nc1cccc2cccnc12)c1ccc(N2C(=O)[C@@H]3[C@H](C2=O)[C@@H]2C=C[C@H]3C2)cc1 [IWR-1], the “expression of Axin2” value [3] is listed as “decrease”.

For Cc1cc(-n2nnc(CC(=O)Nc3ccc(-c4ccccc4)cn3)c2-c2ccccc2)ccn1, the EC50 ([4]; alternative substitution pattern of the triazole) was 100 pM.

In the case of Cc1cc(-c2ncc(CC(=O)Nc3ccc(-c4cnccn4)cn3)cc2C)ccn1 [LGK974, reference compound], the EC50 ([4]; Table 1 triazole substituent screening, L-Wnt-STF cells, normalized to LGK974 control) is reported as 200 pM.
